Test system: patients with relapsed or refractory diffuse large B-cell lymphoma (R/R DLBCL)
Assay: Phase Ib/II study of Pola-R-Len, safety: adverse events graded per NCI CTCAE Version 4.0
Type: in vivo, human
Settings: in combination with polatuzumab vedotin 1.8 mg/kg and rituximab 375 mg/m^2; PO Days 1-21 of 28-day cycles
Procedure: Adverse events were assessed based on the National Cancer Institute Common Terminology Criteria for Adverse Events (NCI CTCAE; Version 4.0). Adverse events that are not specifically listed in the NCI CTCAE were graded as follows: • Grade 1: Mild; asymptomatic or mild symptoms; clinical or diagnostic observations only; or intervention not indicated. • Grade 2: Moderate; minimal, local, or non-invasive intervention indicated; or limiting age-appropriate instrumental activities of daily living. • Grade 3: Severe or medically significant, but not immediately life threatening; hospitalization or prolongation of hospitalization indicated; disabling; or limiting self-care activities of daily living. • Grade 4: Life-threatening consequences or urgent intervention indicated. • Grade 5: Death related to adverse event.
The following populations were defined: • The primary safety and efficacy populations included patients who received at least one dose of any component of the treatment combination. • The intent-to-treat population included patients enrolled in the study.

With Nc1cccc2c1CN(C1CCC(=O)NC1=O)C2=O (stereo not shown) [lenalidomide] the “recommended Phase II dose (RP2D)” value was 20 mg.

— US20240115718A1, “METHODS OF USING ANTI-CD79B IMMUNOCONJUGATES TO TREAT DIFFUSE LARGE B-CELL LYMPHOMA” (Genentech, Inc., priority 2021, published 2024)
